The numbers were not newly measured in patent US20160081962A1, “N[…] DIETARY S[…] ACIDS AND NITRITE” (NITROMEGA CORP., priority 2013, published 2016), which cites them from elsewhere.

For this series the following is noted: exogenous NO3^− intake 10 mg/kg in humans; in 30 min.

Structures are written as SMILES.

In the case of `O=[N+]([O-])O` [NO3^−, nitrate], the “increase of plasma NO2^− concentration” value was “up to four- to five-fold”.
